Reference: patent US12545659B2, “IRAK degraders and uses thereof” (Kymera Therapeutics, Inc., priority 2019, dated 2026)

target: T1, IRAK4 (Homo sapiens, UniProt Q9NWZ3); assay: IRAK4 MSD Degradation in OCI-LY10; format: cell-based; conditions: OCI-LY10 cells, 4 hrs incubation, read-out: IRAK4 degradation in OCI-LY10 at 4 hrs: DC50
T1 construct: endogenous in cells; host or cells: OCI-LY10
T1 sequence (Q9NWZ3 1-460): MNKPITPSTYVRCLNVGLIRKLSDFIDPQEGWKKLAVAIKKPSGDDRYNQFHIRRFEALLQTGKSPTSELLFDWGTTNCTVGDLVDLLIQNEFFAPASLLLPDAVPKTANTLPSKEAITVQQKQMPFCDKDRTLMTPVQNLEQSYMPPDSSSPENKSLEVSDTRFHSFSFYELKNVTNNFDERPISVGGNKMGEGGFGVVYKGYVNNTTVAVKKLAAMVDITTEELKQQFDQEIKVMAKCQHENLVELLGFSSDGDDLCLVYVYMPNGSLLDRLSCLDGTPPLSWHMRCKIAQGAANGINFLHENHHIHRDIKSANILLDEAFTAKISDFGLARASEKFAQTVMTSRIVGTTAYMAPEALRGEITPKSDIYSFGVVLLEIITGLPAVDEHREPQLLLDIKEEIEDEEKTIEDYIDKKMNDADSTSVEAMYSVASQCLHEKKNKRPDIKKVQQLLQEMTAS
Procedure, shortened: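 OCI-LY10 cells treated with 8-dose, 1:3 dilution series (top final 1 to 10 μM) for 4 to 24 h at 37 °C, 5% CO2. Lysate IRAK4 quantified by MSD sandwich immunoassay (mouse 2H9 capture, rabbit Y279 detection, SULFO-TAG anti-rabbit); DC50 from three-parameter logistic fit.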

First: COc1cc2nn([C@H]3CC[C@H](C(=O)N4CCC(c5cccc6c5n(C)c(=O)n6C5CCC(=O)NC5=O)CC4)CC3)cc2cc1NC(=O)c1cccc(C(F)(F)F)n1 (some centres unmarked) [I-295, N-[2-[4-[4-[1-(2,6-dioxo-3-piperidyl)-3-methyl-2-oxo-benzimidazol-4-yl]piperidine-1-carbonyl]cyclohexyl]-6-methoxy-indazol-5-yl]-6-(trifluoromethyl)pyridine-2-carboxamide]
Second: COc1cc2nn([C@H]3CC[C@H](CN4CCC(c5cccc6c5n(C)c(=O)n6C5CCC(=O)NC5=O)CC4)CC3)cc2cc1NC(=O)c1cccc(C(C)(C)O)n1 (some centres unmarked) [I-258]
The DC50 of the first is higher: 0.05 to 0.1 µM for the first, < 0.05 µM for the second.

COc1cc2nn([C@H]3CC[C@H](CN(C)C4CCC5(CC4)CC(Cc4cccc6c4n(C)c(=O)n6C4CCC(=O)NC4=O)C5)CC3)cc2cc1NC(=O)c1cccc(C(F)(F)F)n1 (some centres unmarked) [I-117] and Cn1c(=O)n(C2CCC(=O)NC2=O)c2cccc(C[C@H]3C[C@]4(CC[C@@H](N(C)C[C@H]5CC[C@H](n6cc7cc(NC(=O)c8cccc(C(F)(F)F)n8)c(C(F)F)cc7n6)CC5)CC4)C3)c21 (some centres unmarked) [I-151] fall in the same range of DC50: 0.05 to 0.1 µM for the first, 0.05 to 0.1 µM for the second.

Compared with COc1cc2nn([C@H]3CC[C@H](CN4CCC(CCCc5cccc6c5n(C)c(=O)n6C5CCC(=O)NC5=O)CC4)CC3)cc2cc1NC(=O)c1cnn2cccnc12 (some centres unmarked) [I-158], Cn1c(=O)n(C2CCC(=O)NC2=O)c2cccc(CCCC3CCN(C[C@H]4CC[C@H](n5cc6cc(NC(=O)c7cccc(C(F)(F)F)n7)c(C(F)F)cc6n5)CC4)CC3)c21 (some centres unmarked) [I-300] is higher in DC50: < 0.05 µM for the first, 0.05 to 0.1 µM for the second.

COc1cc2nn([C@H]3CC[C@H](CN4CCN(c5cccc6c5n(C)c(=O)n6C5CCC(=O)NC5=O)CC4)CC3)cc2cc1NC(=O)c1cccc(C(F)(F)F)n1 (some centres unmarked) [I-171] and Cn1c(=O)n(C2CCC(=O)NC2=O)c2cccc(N3CCN(C[C@H]4CC[C@H](n5cc6cc(NC(=O)c7cccc(C(F)(F)F)n7)c(C(C)(C)O)cc6n5)CC4)CC3)c21 (some centres unmarked) [I-172] cannot be ordered by DC50: < 0.05 µM for the first, < 0.05 µM for the second.

CN(CCCO[C@H]1C[C@H](Cc2cccc3c2n(C)c(=O)n3C2CCC(=O)NC2=O)C1)C[C@H]1CC[C@H](n2cc3cc(NC(=O)c4cccc(C(F)(F)F)n4)c(C(F)F)cc3n2)CC1 (some centres unmarked) [I-205] and Cn1c(=O)n(C2CCC(=O)NC2=O)c2cccc(N3CCN(C[C@H]4CC[C@H](n5cc6cc(NC(=O)c7cccc(C(C)(C)F)n7)c(C(F)F)cc6n5)CC4)CC3)c21 (some centres unmarked) [I-177] fall in the same range of DC50: 0.05 to 0.1 µM for the first, 0.05 to 0.1 µM for the second.

Cn1c(=O)n(C2CCC(=O)NC2=O)c2cccc(CCC3CC4(CCN(C[C@H]5CC[C@H](n6cc7cc(NC(=O)c8ccccn8)c(C(F)F)cc7n6)CC5)CC4)C3)c21 (some centres unmarked) [I-277] and Cc1cccc(C(=O)Nc2cc3cn([C@H]4CC[C@H](CN5CCC6(CC5)CC(CCc5cccc7c5n(C)c(=O)n7C5CCC(=O)NC5=O)C6)CC4)nc3cc2C(C)(C)O)n1 (some centres unmarked) [I-276] cannot be ordered by DC50: < 0.05 µM for the first, < 0.05 µM for the second.

CN(C[C@H]1CC[C@H](n2cc3cc(NC(=O)c4cccc(C(F)(F)F)n4)c(N4CCOCC4)cc3n2)CC1)C1CCN(c2cccc3c2n(C)c(=O)n3C2CCC(=O)NC2=O)CC1 (some centres unmarked) [I-178] and COc1cc2nn([C@H]3CC[C@H](CN(C)C4CCN(c5ccc6c(c5)n(C)c(=O)n6C5CCC(=O)NC5=O)CC4)CC3)cc2cc1NC(=O)c1cccc(C(F)(F)F)n1 (some centres unmarked) [I-107] cannot be ordered by DC50: < 0.05 µM for the first, < 0.05 µM for the second.

Compared with CN(C[C@H]1CC[C@H](n2ncc3cc(NC(=O)c4cccc(C(F)(F)F)n4)c(C(C)(C)O)cc32)CC1)C1CCN(Cc2cccc3c2n(C)c(=O)n3C2CCC(=O)NC2=O)CC1 (some centres unmarked) [I-34], CN(CC1CCN(c2cccc3c2C(=O)N(C2CCC(=O)NC2=O)C3=O)CC1)C[C@H]1CC[C@H](n2cc3cc(NC(=O)c4cccc(C(F)(F)F)n4)c(C(C)(C)O)cc3n2)CC1 (some centres unmarked) [I-40] is lower in DC50: 0.5 to 1 µM for the first, 0.05 to 0.1 µM for the second.

First: COc1cc2nn([C@H]3CC[C@H](CN4CCN(c5ccc6c(c5)n(C)c(=O)n6C5CCC(=O)NC5=O)CC4)CC3)cc2cc1NC(=O)c1cccc(C(C)(C)F)n1 (some centres unmarked) [I-156]
Second: COc1cc2nn([C@H]3CC[C@H](CN4CC(c5ccc6c(c5)n(C)c(=O)n6C5CCC(=O)NC5=O)C4)CC3)cc2cc1NC(=O)c1cccc(C(C)(C)F)n1 (some centres unmarked) [I-98]
The DC50 of the first is higher: 0.05 to 0.1 µM for the first, < 0.05 µM for the second.

First: Cn1c(=O)n(C2CCC(=O)NC2=O)c2cccc(CN3CCOC4(CCN(Cc5ccc(-n6cc7cc(NC(=O)c8cccc(C(F)(F)F)n8)c(C(C)(C)O)cc7n6)cc5)CC4)C3)c21 (centres unmarked) [I-52]
Second: Cn1c(=O)n(C2CCC(=O)NC2=O)c2ccc(N3CCN(C[C@H]4CC[C@H](n5cc6cc(NC(=O)c7cccc(C(F)(F)F)n7)c(C(F)F)cc6n5)CC4)CC3)cc21 (some centres unmarked) [I-149]
The DC50 of the first is higher: 0.05 to 0.1 µM for the first, < 0.05 µM for the second.

With COc1cc2nn([C@H]3CC[C@H](CN(C)C4CCN(c5cccc6c5n(C)c(=O)n6C5CCC(=O)NC5=O)CC4)CC3)cc2cc1NC(=O)c1ccc(F)c(C)n1 (some centres unmarked) [I-189] the DC50 was < 0.05 µM.

same assay, conditions: OCI-LY10 cells, 24 hrs incubation, read-out: IRAK4 degradation in OCI-LY10 at 24 hrs: DC50

Compared with COc1cc2nn([C@H]3CC[C@H](CN(C)C4CCC5(CC4)CC(CNc4cccc6c4C(=O)N(C4CCC(=O)NC4=O)C6=O)C5)CC3)cc2cc1NC(=O)c1cccc(-c2cnn(C)c2)n1 (some centres unmarked) [I-219], COc1cc2nn([C@H]3CC[C@H](CN(C)[C@H]4CC[C@H](Nc5cccc6c5C(=O)N(C5CCC(=O)NC5=O)C6=O)CC4)CC3)cc2cc1NC(=O)c1cccc(C)n1 (some centres unmarked) [I-211] is lower in DC50: 0.05 to 0.1 µM for the first, < 0.05 µM for the second.

CN(C[C@H]1CC[C@H](n2cc3cc(NC(=O)c4cccc(C(F)(F)F)n4)c(C(C)(C)O)cc3n2)CC1)[C@H]1CC[C@@]2(CC1)C[C@H](Nc1cccc3c1C(=O)N(C1CCC(=O)NC1=O)C3=O)C2 (some centres unmarked) [I-126] and CN(C[C@H]1CC[C@H](n2cc3cc(NC(=O)c4cccc(C(C)(C)C)n4)c(C(C)(C)O)cc3n2)CC1)[C@H]1CC[C@H](Nc2cccc3c2C(=O)N(C2CCC(=O)NC2=O)C3=O)CC1 (some centres unmarked) [I-236] fall in the same range of DC50: 0.05 to 0.1 µM for the first, 0.05 to 0.1 µM for the second.

COc1cc2nn([C@H]3CC[C@H](CN4CCC5(CC4)CC(CCNc4cccc6c4C(=O)N(C4CCC(=O)NC4=O)C6=O)C5)CC3)cc2cc1NC(=O)c1ccccn1 (some centres unmarked) [I-125] and COc1cc2nn([C@H]3CC[C@H](CN4CCC5(CC4)CC(CCNc4cccc6c4C(=O)N(C4CCC(=O)NC4=O)C6=O)C5)CC3)cc2cc1NC(=O)c1cccc(C(C)(F)F)n1 (single isomer, unassigned) [I-129] fall in the same range of DC50: 0.05 to 0.1 µM for the first, 0.05 to 0.1 µM for the second.

Compared with COc1cc2nn([C@H]3CC[C@H](CN4CCC5(CC4)CC(CCNc4cccc6c4C(=O)N(C4CCC(=O)NC4=O)C6=O)C5)CC3)cc2cc1NC(=O)[C@@H]1CCCCN1 (some centres unmarked) [I-143], COc1cc2nn([C@H]3CC[C@H](CN4CCC5(CC4)CC(Nc4cccc6c4C(=O)N(C4CCC(=O)NC4=O)C6=O)C5)CC3)cc2cc1NC(=O)c1cccc(C(C)(C)F)n1 (some centres unmarked) [I-78] is lower in DC50: 0.5 to 1 µM for the first, 0.05 to 0.1 µM for the second.

First: COc1cc2nn([C@H]3CC[C@H](CN4CCC(COCCCNc5cccc6c5C(=O)N(C5CCC(=O)NC5=O)C6=O)CC4)CC3)cc2cc1NC(=O)c1cccc(C(C)(C)F)n1 (some centres unmarked) [I-231]
Second: Cc1cccc(C(=O)Nc2cc3cn([C@H]4CC[C@H](CN5CCC(COCCCNc6cccc7c6C(=O)N(C6CCC(=O)NC6=O)C7=O)CC5)CC4)nc3cc2C(C)(C)O)n1 (some centres unmarked) [I-304]
The DC50 of the first is higher: 0.05 to 0.1 µM for the first, < 0.05 µM for the second.

COc1cc2nn([C@H]3CC[C@H](CN4CCC5(CC4)CCN(c4cccc6c4C(=O)N(C4CCC(=O)NC4=O)C6=O)CC5)CC3)cc2cc1NC(=O)c1cccc(C(F)(F)F)n1 (some centres unmarked) [I-220] and CC(C)(O)COc1cc2nn([C@H]3CC[C@H](CN4CCC5(CC4)CC(CNc4cccc6c4C(=O)N(C4CCC(=O)NC4=O)C6=O)C5)CC3)cc2cc1NC(=O)c1cccc(C(F)(F)F)n1 (some centres unmarked) [I-138] fall in the same range of DC50: 0.05 to 0.1 µM for the first, 0.05 to 0.1 µM for the second.

First: CC(C)(O)c1cc2nc([C@H]3CC[C@H](CN4CCC5(CC4)CC(CCNc4cccc6c4C(=O)N(C4CCC(=O)NC4=O)C6=O)C5)CC3)oc2cc1NC(=O)c1cccc(C(F)(F)F)n1 (some centres unmarked) [I-182]
Second: CC(C)(O)c1cc2nn([C@H]3CC[C@H](CN4CCC5(CC4)CC(CNc4cccc6c4C(=O)N(C4CCC(=O)NC4=O)C6=O)C5)CC3)cc2cc1NC(=O)c1cccc(C(F)(F)F)n1 (some centres unmarked) [I-42]
The DC50 of the first is higher: 0.5 to 1 µM for the first, < 0.05 µM for the second.

Compared with CC(C)(O)c1cc2nn([C@H]3CC[C@H](CN4CCC5(CC4)CC(Nc4cccc6c4C(=O)N(C4CCC(=O)NC4=O)C6=O)C5)CC3)cc2cc1NC(=O)c1cccc(S(F)(F)(F)(F)F)n1 (some centres unmarked) [I-291], COc1cc2nn([C@H]3CC[C@H](CN(C)[C@H]4CC[C@H](Nc5cccc6c5C(=O)N(C5CCC(=O)NC5=O)C6=O)CC4)CC3)cc2cc1NC(=O)c1cccc(S(F)(F)(F)(F)F)n1 (some centres unmarked) [I-318] is higher in DC50: < 0.05 µM for the first, 0.05 to 0.1 µM for the second.

COc1cc2nn([C@H]3CC[C@H](CN4CCC5(CC4)CC(CCNc4cccc6c4C(=O)C(C4CCC(=O)NC4=O)C6=O)C5)CC3)cc2cc1NC(=O)c1ccnc(C)n1 (some centres unmarked) [I-120] and COc1cc2nn([C@H]3CC[C@H](CN(C)CCCO[C@H]4C[C@H](Nc5cccc6c5C(=O)N(C5CCC(=O)NC5=O)C6=O)C4)CC3)cc2cc1NC(=O)c1cccc(C(F)(F)F)n1 (some centres unmarked) [I-230] fall in the same range of DC50: 0.05 to 0.1 µM for the first, 0.05 to 0.1 µM for the second.

First: CC(C)(O)c1cc2nc(N3CCC(CN4CCC5(CC4)CC(Nc4cccc6c4C(=O)N(C4CCC(=O)NC4=O)C6=O)C5)CC3)oc2cc1NC(=O)c1cccc(C(F)(F)F)n1 (centres unmarked) [I-184]
Second: CN(CCCO[C@H]1C[C@H](Nc2cccc3c2C(=O)N(C2CCC(=O)NC2=O)C3=O)C1)C[C@@]1(C)Cc2cc(NC(=O)c3cccc(C(F)(F)F)n3)c(N3CCOCC3)cc2O1 (stereo partly drawn) [I-256, N-((2R)-2-(((3-((1r,3R)-3-((2-(2,6-Dioxopiperidin-3-yl)-1,3-dioxoisoindolin-4-yl)amino)cyclobutoxy)propyl)(methyl)amino)methyl)-2-methyl-6-morpholino-2,3-dihydrobenzofuran-5-yl)-6-(trifluoromethyl)picolinamide]
The DC50 of the first is lower: 0.05 to 0.1 µM for the first, 0.5 to 1 µM for the second.
